Measurements published in US20210337789A1, “Derivatives of m-Guaiacol, Their Preparation and Their Uses” (Universite de Caen Normandie, priority 2018, published 2021).

How the values were obtained:
[1] = system: Micrococcus luteus reference strain; test: Bacterial growth (optical density at 600 nm) on Micrococcus luteus reference strain; type: cell-based; design: key: 0 = no effect, 1 = pure only, 2 = several concentrations, 3 = strong at all; conditions: in DMSO diluted in PBS, compared with triclosan
Description: (§1) The bacterial growth is evaluated by measuring the optical density (DO) at 600 nm using NanoDrop.
(§2) This ratio permits a classification of the molecules in 4 effect levels: • 0=no effect observed; • 1=effect observed only when the molecule is tested pure; • 2=effect observed at several concentrations, but which gradually decreases the dilutions; • 3=strong effect observed at each concentration of molecule tested.
The molecules are put in a solution in DMSO and diluted in PBS.

[2] = system: Streptococcus equi subsp zooepidemicus; test: Bacterial growth screening on wild-type phenotype strain, S. zooepidemicus; type: cell-based
Description: as §1, §2
(§3) A screening of molecules of the invention on several wild-type phenotype strains has been carried out.
(§4) The strains initially selected are: • Gram+: Streptococcus equi subsp zooepidemicus and Staphylococcus aureus • Gram−: Escherichia coli, Klebsiella pneumoniae and Stenotrophomonas maltophila.

[3] = system: Staphylococcus aureus; test: Bacterial growth screening on wild-type phenotype strain, S. aureus; type: cell-based
Description: as §1, §2, §3, §4

[4] = system: Escherichia coli; test: Bacterial growth screening on wild-type phenotype strain, E. coli; type: cell-based
Description: as §1, §2, §3, §4

[5] = system: Klebsiella pneumoniae; test: Bacterial growth screening on wild-type phenotype strain, K. pneumoniae; type: cell-based
Description: as §1, §2, §3, §4

[6] = system: Stenotrophomonas maltophila; test: Bacterial growth screening on wild-type phenotype strain, S. maltophila; type: cell-based
Description: as §1, §2, §3, §4

[7] = system: E. coli strains presenting high levels of resistance; test: Bacterial growth on E. coli strains presenting high levels of resistance; type: cell-based, Escherichia coli; design: key to Effects (0 < 1 < 2 < 3): 0 = no effect; 1 = pure only; 2 = several concs; 3 = strong at each; conditions: for Effects (0 < 1 < 2 < 3): molecules at 1, 0.5 and 0.1 mg/ml, triclosan at 0.1 mg/ml
Description: as §1, §2
(§5) Compounds of the invention were tested on 4 strains of E. coli, 3 strains of K. pneumoniae and 4 strains of S. aureus with the resistance profiles below.

[8] = system: K. pneumoniae strains presenting high levels of resistance; test: Bacterial growth on K. pneumoniae strains presenting high levels of resistance; type: cell-based, Klebsiella pneumoniae; design: key to Effects (0 < 1 < 2 < 3): 0 = no effect; 1 = pure only; 2 = several concs; 3 = strong at each; conditions: for Effects (0 < 1 < 2 < 3): molecules at 1, 0.5 and 0.1 mg/ml, triclosan at 0.1 mg/ml
Description: as §1, §2, §5

[9] = system: S. aureus strains presenting high levels of resistance; test: Bacterial growth on S. aureus strains presenting high levels of resistance; type: cell-based, Staphylococcus aureus; design: key to Effects (0 < 1 < 2 < 3): 0 = no effect; 1 = pure only; 2 = several concs; 3 = strong at each; conditions: for Effects (0 < 1 < 2 < 3): molecules at 1, 0.5 and 0.1 mg/ml, triclosan at 0.1 mg/ml
Description: as §1, §2, §5

[10] = system: KB cells (epidermoid carcinoma); test: In vitro cytotoxicity, cell proliferation test (MTS) on KB cells; type: cell-based; conditions: Homo sapiens, KB cells, triplicate, 72 hours of exposure, with respect to DMSO control, read-out: percentage of inhibition of cell growth
Description: The human cell strain KB (epidermoid carcinoma) was obtained from the NCI (National Cancer Institute) and cultivated in the D-MEM medium added with 10% of foetal bovine serum (Invitrogen) in the presence of penicillin, streptomycin and fungizone in flasks of […] under CO2 at 5%. The cells were deposited on tissue culture microplates with 96 wells and a density of 650 cells/well in 200 μl of medium and treated 24 hours later with compounds of the invention dissolved in DMSO at concentrations going from 0.5 nM to 10 μM using a Biomek 3000 (Beckman-Coulter) automaton. The controls received the same volume of DMSO (1% of final volume). After 72 hours of exposure, the MTS reagent (Celltiter 96Aqueous One solution, Promega) was added and incubated for 3 hours at 37° C.: the absorbance was measured at 490 nm and the results of inhibition of the cell proliferation were calculated according to the ratio [(1−(OD490treated/OD490control))×100].
Results: Cytotoxicity at 10^−5 and 10^−6M on Triplicate KB Cells, Measured after 72 Hours of Exposure.
The percentage of inhibition of cell growth with respect to the cells receiving the same quantity of DMSO is outlined in the table below.

In the case of COc1cc(O)c(Cl)c(Cl)c1Cl [sr7585], the Effect level [1] is reported as 3, the “Effect level, S. zooepidemicus” value [2] is reported as 3 and the “Effect level, S. aureus” value [3] is reported as 3. For the same compound, the “Effect level, E. coli” value [4] was 3, the “Effect level, K. pneumoniae” value [5] was 2 and the “Effect level, S. maltophila” value [6] was 2. For the same compound, the “Δ DO” value ([7]; E. coli Strain 1, 0.1 mg/ml) was 0.196, the “Δ DO” value ([7]; E. coli Strain 1, 0.5 mg/ml) was 0.746 and the “Δ DO” value ([7]; E. coli Strain 1, 1 mg/ml) was 0.920. For the same compound, the “Effects (0 < 1 < 2 < 3)” value ([7]; E. coli Strain 1) was 3, the “Δ DO” value ([7]; E. coli Strain 2, 0.1 mg/ml) was 0.313 and the “Δ DO” value ([7]; E. coli Strain 2, 0.5 mg/ml) was 0.964. For the same compound, the “Δ DO” value ([7]; E. coli Strain 2, 1 mg/ml) was 1.097, the “Effects (0 < 1 < 2 < 3)” value ([7]; E. coli Strain 2) was 3 and the “Δ DO” value ([7]; E. coli Strain 3, 0.1 mg/ml) was 0.186. For the same compound, the “Δ DO” value ([7]; E. coli Strain 3, 0.5 mg/ml) was 0.736, the “Δ DO” value ([7]; E. coli Strain 3, 1 mg/ml) was 0.893 and the “Effects (0 < 1 < 2 < 3)” value ([7]; E. coli Strain 3) was 3. For the same compound, the “Δ DO” value ([7]; E. coli Strain 4, 0.1 mg/ml) was 0.322, the “Δ DO” value ([7]; E. coli Strain 4, 0.5 mg/ml) was 0.848 and the “Δ DO” value ([7]; E. coli Strain 4, 1 mg/ml) was 0.979. The “Effects (0 < 1 < 2 < 3)” value ([7]; E. coli Strain 4) was 3, the “Δ DO” value ([8]; K. pneumoniae Strain 1, 0.1 mg/ml) was 0.251 and the “Δ DO” value ([8]; K. pneumoniae Strain 1, 0.5 mg/ml) was 0.595. For the same compound, the “Δ DO” value ([8]; K. pneumoniae Strain 1, 1 mg/ml) was 0.644, the “Effects (0 < 1 < 2 < 3)” value ([8]; K. pneumoniae Strain 1) was 3 and the “Δ DO” value ([8]; K. pneumoniae Strain 2, 0.1 mg/ml) was 0.035. For the same compound, the “Δ DO” value ([8]; K. pneumoniae Strain 2, 0.5 mg/ml) was 0.620, the “Δ DO” value ([8]; K. pneumoniae Strain 2, 1 mg/ml) was 0.701 and the “Effects (0 < 1 < 2 < 3)” value ([8]; K. pneumoniae Strain 2) was 2. The “Δ DO” value ([8]; K. pneumoniae Strain 3, 0.1 mg/ml) was 0.265, the “Δ DO” value ([8]; K. pneumoniae Strain 3, 0.5 mg/ml) was 0.683 and the “Δ DO” value ([8]; K. pneumoniae Strain 3, 1 mg/ml) was 0.872. For the same compound, the “Effects (0 < 1 < 2 < 3)” value ([8]; K. pneumoniae Strain 3) was 2, the “Δ DO” value ([9]; S. aureus Strain 1, 0.1 mg/ml) was 0.352 and the “Δ DO” value ([9]; S. aureus Strain 1, 0.5 mg/ml) was 0.445. The “Δ DO” value ([9]; S. aureus Strain 1, 1 mg/ml) was 0.445, the “Effects (0 < 1 < 2 < 3)” value ([9]; S. aureus Strain 1) was 3 and the “Δ DO” value ([9]; S. aureus Strain 2, 0.1 mg/ml) was 0.385. The “Δ DO” value ([9]; S. aureus Strain 2, 0.5 mg/ml) was 0.458, the “Δ DO” value ([9]; S. aureus Strain 2, 1 mg/ml) was 0.457 and the “Effects (0 < 1 < 2 < 3)” value ([9]; S. aureus Strain 2) was 3. For the same compound, the “Δ DO” value ([9]; S. aureus Strain 3, 0.1 mg/ml) was 0.459, the “Δ DO” value ([9]; S. aureus Strain 3, 0.5 mg/ml) was 0.529 and the “Δ DO” value ([9]; S. aureus Strain 3, 1 mg/ml) was 0.530. The “Effects (0 < 1 < 2 < 3)” value ([9]; S. aureus Strain 3) was 3, the “Δ DO” value ([9]; S. aureus Strain 4, 0.1 mg/ml) was 0.405 and the “Δ DO” value ([9]; S. aureus Strain 4, 0.5 mg/ml) was 0.491. For the same compound, the “Δ DO” value ([9]; S. aureus Strain 4, 1 mg/ml) was 0.486, the “Effects (0 < 1 < 2 < 3)” value ([9]; S. aureus Strain 4) was 3 and the inhibition at 10 µM ([10]; 10^−5 M) was 0%. For the same compound, the inhibition at 1 µM ([10]; 10^−6 M) was 0%.
